{"source": "paper PMC3848336", "about": "“Aurora Isoform Selectivity: Design and Synthesis of Imidazo[4,5-b]pyridine Derivatives as Highly Selective Inhibitors of Aurora-A Kinase in Cells” (Journal of Medicinal Chemistry, 2013)", "test_in_all_cases": "Kinase selectivity profiling", "type_in_all_cases": "biochemical", "key": {"[1]": {"target": "p38d MAPK (Homo sapiens, UniProt O15264)", "sequence (O15264 whole entry)": "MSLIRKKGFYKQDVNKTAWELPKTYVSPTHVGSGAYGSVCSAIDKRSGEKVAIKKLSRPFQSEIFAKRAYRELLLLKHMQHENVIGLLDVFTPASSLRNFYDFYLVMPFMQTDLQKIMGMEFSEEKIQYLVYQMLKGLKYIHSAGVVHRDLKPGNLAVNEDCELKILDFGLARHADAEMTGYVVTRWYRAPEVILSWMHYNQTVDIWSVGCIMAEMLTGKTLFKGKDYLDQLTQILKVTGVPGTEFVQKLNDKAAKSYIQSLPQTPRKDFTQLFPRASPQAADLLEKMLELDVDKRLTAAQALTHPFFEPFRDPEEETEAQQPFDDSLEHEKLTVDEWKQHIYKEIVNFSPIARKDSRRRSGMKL", "conditions": "110-kinase panel", "text": "(§1) Compound 28c was profiled against a panel of 110 kinases at the International Centre for Protein Kinase Profiling, Division of Signal Transduction Therapy, University of Dundee. Compound 40f was profiled against a panel of 50 kinases (MRC-PPU Express Screen) also at the International Centre for Protein Kinase Profiling."}, "[2]": {"target": "EPH-B3 (Homo sapiens, UniProt P54753)", "sequence (P54753 34-998)": "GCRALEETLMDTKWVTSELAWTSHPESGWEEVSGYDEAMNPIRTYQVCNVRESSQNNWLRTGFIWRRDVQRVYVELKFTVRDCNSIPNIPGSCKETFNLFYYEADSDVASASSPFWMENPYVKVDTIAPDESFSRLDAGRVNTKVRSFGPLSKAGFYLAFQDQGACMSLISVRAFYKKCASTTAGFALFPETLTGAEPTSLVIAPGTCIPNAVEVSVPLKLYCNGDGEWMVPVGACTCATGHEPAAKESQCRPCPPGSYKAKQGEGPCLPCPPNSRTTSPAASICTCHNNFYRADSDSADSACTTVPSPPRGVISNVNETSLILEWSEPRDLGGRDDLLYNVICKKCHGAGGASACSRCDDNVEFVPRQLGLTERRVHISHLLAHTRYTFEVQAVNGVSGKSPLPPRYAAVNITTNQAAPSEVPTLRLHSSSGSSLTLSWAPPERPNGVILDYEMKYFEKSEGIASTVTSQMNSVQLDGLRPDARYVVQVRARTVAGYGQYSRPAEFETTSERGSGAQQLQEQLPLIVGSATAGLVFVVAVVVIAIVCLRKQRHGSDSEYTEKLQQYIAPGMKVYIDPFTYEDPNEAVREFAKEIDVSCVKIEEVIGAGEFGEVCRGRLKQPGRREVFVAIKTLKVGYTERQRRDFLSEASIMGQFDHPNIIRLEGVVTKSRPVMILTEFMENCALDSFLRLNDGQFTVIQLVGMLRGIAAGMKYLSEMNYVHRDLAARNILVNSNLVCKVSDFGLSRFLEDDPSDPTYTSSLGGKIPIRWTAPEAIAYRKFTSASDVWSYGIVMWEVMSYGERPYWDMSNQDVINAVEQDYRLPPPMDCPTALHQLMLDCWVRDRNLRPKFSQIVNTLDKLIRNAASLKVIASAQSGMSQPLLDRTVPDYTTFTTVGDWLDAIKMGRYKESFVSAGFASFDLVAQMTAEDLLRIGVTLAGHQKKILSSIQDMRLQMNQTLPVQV", "conditions": "110-kinase panel, read-out: % activity remaining, EPH2B3", "text": "as §1"}, "[3]": {"target": "MST4 (Homo sapiens, UniProt Q9P289)", "sequence (Q9P289 whole entry)": "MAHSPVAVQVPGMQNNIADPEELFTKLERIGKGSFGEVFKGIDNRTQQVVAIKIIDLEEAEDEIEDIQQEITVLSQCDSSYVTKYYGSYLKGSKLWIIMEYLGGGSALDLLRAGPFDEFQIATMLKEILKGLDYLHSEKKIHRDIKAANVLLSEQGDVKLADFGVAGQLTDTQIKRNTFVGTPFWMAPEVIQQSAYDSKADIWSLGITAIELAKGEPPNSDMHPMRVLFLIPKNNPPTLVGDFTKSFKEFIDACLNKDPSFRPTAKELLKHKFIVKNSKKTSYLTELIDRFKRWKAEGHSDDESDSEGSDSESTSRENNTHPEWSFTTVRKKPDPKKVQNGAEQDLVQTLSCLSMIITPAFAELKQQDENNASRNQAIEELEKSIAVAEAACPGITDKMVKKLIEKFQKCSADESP", "conditions": "110-kinase panel", "text": "as §1"}}}
{"smiles": "Cc1nn(C)cc1-c1nc2c(Oc3ccc(C(=O)Nc4ccccc4)cc3)c(Cl)cnc2[nH]1", "note": "[compound 28c, 4-((6-Chloro-2-(1,3-dimethyl-1H-pyrazol-4-yl)-3H-imidazo[4,5-b]pyridin-7-yl)oxy)-N-phenylbenzamide]", "values": [{"measurement": "remaining activity at 1 µM", "setting": "[1]", "value": 102, "unit": "%"}, {"measurement": "remaining activity at 1 µM", "setting": "[2]", "value": 106, "unit": "%"}, {"measurement": "remaining activity at 1 µM", "setting": "[3]", "value": 115, "unit": "%"}]}
